Here are results for two compounds from patent US20220265694A1, “COMPOSITIONS AND METHODS FOR TREATING AN INFECTION” (CMPD LICENSING, LLC, priority 2016, published 2022).

Like-named read-outs stand apart in the source and are kept apart here.

The test system of assay [1] is Bacteroides fragilis. As to the kind of experiment: Expected efficacy of antibiotic agents. Conditions: expected efficacy against Bacteroides fragilis; Gram: anaer.
The subject of assay [2] is Chlamydia trachomatis. As to the kind of experiment: Expected efficacy of antibiotic agents. Conditions: expected efficacy against Chlamydia trachomatis; Gram: n/a.
Assay [3] has as its system Acinetobacter calcoaceticus. As to the kind of experiment: Expected efficacy of antibiotic agents. Conditions: expected efficacy against Acinetobacter calcoaceticus; Gram: neg.
In assay [4] the test system is Acinetobacter lwoffii. As to the kind of experiment: Expected efficacy of antibiotic agents. Conditions: expected efficacy against Acinetobacter lwoffii; Gram: neg.
The test system of assay [5] is Escherichia coli. As to the kind of experiment: Expected efficacy of antibiotic agents. Conditions: expected efficacy against Escherichia coli; Gram: neg.
In assay [6] the test system is Francisella tularensis.
Assay [7] concerns Providencia stuartii. As to the kind of experiment: Expected efficacy of antibiotic agents. Conditions: expected efficacy against Providencia stuartii; Gram: neg.
Assay [8] deals with Serratia marcescens. As to the kind of experiment: Expected efficacy of antibiotic agents. Conditions: expected efficacy against Serratia marcescens; Gram: neg.
The test system of assay [9] is Shigella flexneri. As to the kind of experiment: Expected efficacy of antibiotic agents. Conditions: expected efficacy against Shigella flexneri; Gram: neg.
Assay [10] has as its system Yersinia pestis.
Assay [11] deals with Diphtheroids. As to the kind of experiment: Expected efficacy of antibiotic agents. Conditions: expected efficacy against Diphtheroids; Gram: pos.
The subject of assay [12] is Enterococcus faecium. As to the kind of experiment: Expected efficacy of antibiotic agents. Conditions: expected efficacy against Enterococcus faecium; Gram: pos.
For assay [13], the system named is Peptostreptococcus. As to the kind of experiment: Expected efficacy of antibiotic agents. Conditions: expected efficacy against Peptostreptococcus; Gram: pos.
In assay [14] the test system is Staphylococcus aureus (MSSA). As to the kind of experiment: Expected efficacy of antibiotic agents. Conditions: expected efficacy against Staphylococcus aureus (MSSA); Gram: pos.
Assay [15] has as its system Bartonella bacilliformis. As to the kind of experiment: Expected efficacy of antibiotic agents. Conditions: expected efficacy against Bartonella bacilliformis; Gram: neg.
Assay [16] relates to Brucella species.
The subject of assay [17] is Pseudomonas fluorescens. As to the kind of experiment: Expected efficacy of antibiotic agents. Conditions: expected efficacy against Pseudomonas fluorescens; Gram: neg.

Regarding `CO/N=C(\C(=O)N[C@@H]1C(=O)N2C(C(=O)O)=C(CSc3nc(=O)c(=O)[nH]n3C)CS[C@H]12)c1csc(N)n1` [Ceftriaxone], the Efficacy result in assay [1] is “yes”; in assay [2] it was “no”; in assay [3], “no”; in assay [4] it was “no”; in assay [5] it was “yes”; in [6] (expected efficacy against Francisella tularensis, Gram: neg), “no”. Moreover, the Efficacy entry in assay [7] is recorded as “yes”; in assay [8], “yes”; in assay [9], “yes”; in assay [10] (expected efficacy against Yersinia pestis, Gram: neg) it was “no”; in [11], “no”; in [12], “no”. The Efficacy result in assay [13] and in assay [14] was “yes” each time.

In the case of `CN[C@H](CC(C)C)C(=O)N[C@H]1C(=O)N[C@@H](CC(N)=O)C(=O)N[C@H]2C(=O)N[C@H]3C(=O)N[C@H](C(=O)N[C@H](C(=O)O)c4cc(O)cc(O)c4-c4cc3ccc4O)[C@H](O)c3ccc(c(Cl)c3)Oc3cc2cc(c3O[C@@H]2O[C@H](CO)[C@@H](O)[C@H](O)[C@H]2O[C@H]2C[C@](C)(N)[C@H](O)[C@H](C)O2)Oc2ccc(cc2Cl)[C@H]1O` [Vancomycin], the Efficacy result in assay [1], in assay [2], in assay [3], in assay [4], in [15] and in assay [16] was “no” throughout. Besides, the Efficacy result in assay [5], in assay [6], in assay [7], in assay [17], in [8] and in assay [9] was “no” throughout. The Efficacy result in assay [10] is “no”; in assay [11], “yes”; in [12], “yes, not VRE”; in assay [13] it was “yes”; in assay [14] it was “yes”.
